In US20230321253A1, “BIFUNCTIONAL COMPOUNDS AND PHARMACEUTICAL USES THEREOF” (RISEN (SUZHOU) PHARMA TECH CO., LTD., priority 2022, published 2023):

Target: T1, KRAS-G12D protein (Homo sapiens, UniProt P01116, G12D)
T1 construct: host or cells: Aspc-1 cells
Experiment: KRAS-G12D protein degradation study in Aspc-1 cells (western blot)
Assay type: cell-based
Conditions: ASPC1, 24 h, 24 hours; for inhibition at 0.1 µM: Aspc-1 cells treated with 0.1 μM compound; for inhibition at 0.1 µM / inhibition at 1 µM: read-out: Rate of protein degradation (KRAS^G12D); for inhibition at 1 µM: Aspc-1 cells treated with 1 μM compound; for inhibition at 0.05 µM: Aspc-1 cells treated with 50 nM compound, read-out: Rate of degradation (KRAS^G12D)
Protocol: Aspc-1 (Cobioer, CBP60546) cells in exponential growth phase were inoculated on a 6-well cell culture plate (Corning, 3516) at density of 1E6/well; and cells in the plate were cultured in 37° C. incubator containing 5% carbon dioxide. The next day, test compounds were dissolved in DMSO (Sigma, RNBF5902) for the preparation of a 10 mM concentration stock solution. The stock solution was diluted with complete medium (RPMI-1640 supplemented with 10% fetal bovine serum, 1% penicillin-streptomycin), yielding working solutions of various concentrations. The plate, after the addition of compounds, was placed in a 5% carbon dioxide incubator, and incubated at 37° C. for 24 hours (final DMSO concentration was 0.1%). The plate was then removed from the incubator, and the cells were washed twice with precooled PBS (Gibco, 14190250), followed by addition of 80 μL RIPA lysis buffer (containing protease inhibitor (Invitrogen™, AM2696)) to each well. The adherent cells were scraped off with a cell scraper, and the cell lysate was transferred to a 1.5 mL centrifuge tube followed with a 30-minute incubation on ice. The lysate was then clarified with centrifugation at 14000 rpm for 10 min at 4° C. The supernatant was transferred into a new 1.5 mL centrifuge tube, and protein concentration was measured with BCA protein detection kit (Thermo Fisher, 23225). KRAS-G12D protein level was assessed by western blot.
A mixture of cell lysate (40 μL) and loading buffer (10 μL 5×SDS (Beyotime, P0015L)) was denatured in a water bath at 95° C. for 10 min. The denatured protein sample, at 30 μL/well, was loaded into the corresponding well of a 4-20% Bis-Tris gel (Kingsley, M00656). Protein samples were initially electrophoresed at 80 V for 30 minutes, followed by 120 V for 40 minutes, until the bromophenol blue strip ran to an appropriate position. After electrophoresis, iBlot2 (Life Technologies, IB21001) was used to transfer the separated samples onto PVDF film. The PVDF membrane was washed with double-distilled water and then blocked in TBST (Thermo Scientific, 28360) buffer containing 5% non-fat milk, for 2 hours. Blocked membrane was rinsed with tris-buffered saline tween-20 (Thermo Scientific, 28360, TBST) three times, 10 minutes each. Membrane was then incubated with 1:1000 diluted KRAS primary antibody (CST, cat #14429S) overnight at 4° C. Membrane was rinsed as described previously followed by 1 hour incubation of secondary antibody at room temperature. After washing the film three times with TBST, ECL color developing solution was applied, and image was captured with Biorad Chemi Doc gel imager. The band gray value was quantified (Image Lab), and protein degradation level was calculated according to the following formula:
Level of RAS protein expression=(RAS-compound/GAPDH)/(RAS-DMSO/GAPDH)
Level of degradation (%)=(1−Rate of RAS protein expression)×100
The symbols “−”, “+”, “++”, and “+++” indicate that the degradation level of KRAS^G12D protein induced by the test compounds was 10% or less, 11 to 30%, 31 to 60%, and greater than 60%, respectively.
Half-maximum degradation concentrations (DC50s) of exemplary test compounds were calculated using GraphPad Prism and their values are shown in Table 6. The symbols “++++”, “+++”, “++” and “+” indicate DC50 equal or less than 10 nM, 11-50 nM, 51-100 nM, and 101-200 nM, respectively.

T1 sequence (P01116 1-188 isoform P01116-2 G12D): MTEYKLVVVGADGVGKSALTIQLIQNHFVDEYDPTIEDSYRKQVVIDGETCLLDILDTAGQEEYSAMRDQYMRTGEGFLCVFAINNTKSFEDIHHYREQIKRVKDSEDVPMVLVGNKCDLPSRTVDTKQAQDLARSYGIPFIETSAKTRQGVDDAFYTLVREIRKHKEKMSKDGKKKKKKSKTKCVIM

C#Cc1c(F)ccc2cc(O)cc(-c3ncc4c(N5CC6CCC(C5)N6)nc(OCC5CCN(CCCCCCCCCCC(=O)N[C@H](C(=O)N6C[C@H](O)C[C@H]6C(=O)N[C@@H](C)c6ccc(-c7scnc7C)cc6)C(C)(C)C)C5)nc4c3F)c12 (stereo partly drawn) [Compound 56]
inhibition at 0.1 µM: 31 to 60%
inhibition at 1 µM: > 60%

CCc1c(F)ccc2cc(O)cc(-c3ncc4c(N5CC6CCC(C5)N6)nc(OCC5(CN6CCC7(CC6)CC(N6CCC(c8ccc9c(C%10CCC(=O)NC%10=O)nn(C)c9c8)CC6)C7)CC5)nc4c3F)c12 (stereo not drawn) [Compound 81]
inhibition at 0.1 µM: 31 to 60%

C#Cc1c(F)ccc2cc(O)cc(-c3ncc4c(N5CC6CCC(C5)N6)nc(OC5CCN(CCOCCOCC(=O)N[C@H](C(=O)N6C[C@H](O)C[C@H]6C(=O)NCc6ccc(-c7scnc7C)cc6)C(C)(C)C)CC5)nc4c3F)c12 [Compound 53]
inhibition at 1 µM: 11 to 30%

C#Cc1c(F)ccc2cc(O)cc(-c3ncc4c(N5CC6CCC(C5)N6)nc(OCC5(CN6CCN(CCCCCCCCCCC(=O)N7CCN(C(=O)C[C@H](NC(=O)[C@@H]8C[C@@H](O)CN8C(=O)[C@@H](NC(=O)C8(F)CC8)C(C)(C)C)c8ccc(-c9scnc9C)cc8)CC7)CC6)CC5)nc4c3F)c12 [Compound 106]
inhibition at 0.1 µM: 11 to 30%

C#Cc1c(F)ccc2cc(O)cc(-c3ncc4c(N5CC6CCC(C5)N6)nc(O[C@@H]5CCN(CCCCCCCCCCCC(=O)N[C@H](C(=O)N6C[C@H](O)C[C@H]6C(=O)N[C@@H](C)c6ccc(-c7scnc7C)cc6)C(C)(C)C)C5)nc4c3F)c12 [Compound 87]
inhibition at 0.1 µM: 31 to 60%

C#Cc1c(F)ccc2cc(O)cc(-c3ncc4c(N5CC6CCC(C5)N6)nc(OCC5(CN6CCC7(CC6)CC(N6CCN(c8cc9c(cc8F)C(=O)N(C8CCC(=O)NC8=O)C9=O)CC6)C7)CC5)nc4c3F)c12 (stereo not drawn) [Compound 152]
inhibition at 0.05 µM: 31 to 60%

C#Cc1c(F)ccc2cc(O)cc(-c3ncc4c(N5CC6CCC(C5)N6)nc(OCC5(CN6CCC(CNc7cccc8c(C9CCC(=O)NC9=O)nn(C)c78)CC6)CC5)nc4c3F)c12 (stereo not drawn) [Compound 165]
inhibition at 0.05 µM: 31 to 60%

C#Cc1c(F)ccc2cc(O)cc(-c3ncc4c(N5CC6CCC(C5)N6)nc(OCC56CCCN5[C@@H](COC(=O)N5CCC(c7ccc8c(C9CCC(=O)NC9=O)nn(C)c8c7)CC5)CC6)nc4c3F)c12 (stereo partly drawn) [Compound 97]
inhibition at 0.1 µM: 31 to 60%

C#Cc1c(F)ccc2cc(O)cc(-c3ncc4c(N5CC6CCC(C5)N6)nc(OCC5(CN6CCC7(CC6)CC(N6CCC(c8cccc9c8C(=O)N(C8CCC(=O)NC8=O)C9=O)CC6)C7)CC5)nc4c3F)c12 (stereo not drawn) [Compound 171]
inhibition at 0.05 µM: ≤ 10%

CCc1c(F)ccc2cc(O)cc(-c3ncc4c(N5CC6CCC(C5)N6)nc(OC5CCN(CCCCCCCCCCC(=O)N[C@H](C(=O)N6C[C@H](O)C[C@H]6C(=O)N[C@@H](C)c6ccc(-c7scnc7C)cc6)C(C)(C)C)CC5)nc4c3F)c12 [Compound 80]
inhibition at 0.1 µM: 31 to 60%

C#Cc1c(F)ccc2cc(O)cc(-c3ncc4c(N5CC6CCC(C5)N6)nc(OC[C@@H]5C[C@@H](NC(=O)N6CCC(c7ccc8c(C9CCC(=O)NC9=O)nn(C)c8c7)CC6)CN5C)nc4c3F)c12 (stereo partly drawn) [Compound 95]
inhibition at 0.1 µM: 11 to 30%

CCc1c(F)ccc2cc(O)cc(-c3ncc4c(N5CC6CCC(C5)N6)nc(OCC56CCCN5[C@@H](COC(=O)NCCCCC(=O)N[C@H](C(=O)N5C[C@H](O)C[C@H]5C(=O)N[C@@H](C)c5ccc(-c7scnc7C)cc5)C(C)(C)C)CC6)nc4c3F)c12 (stereo partly drawn) [Compound 67]
inhibition at 0.1 µM: ≤ 10%
inhibition at 1 µM: 31 to 60%

C#Cc1c(F)ccc2cc(O)cc(-c3ncc4c(N5CC6CCC(C5)N6)nc(O[C@H]5CCN(CCCCCCCCCCC(=O)N[C@H](C(=O)N6C[C@H](O)C[C@H]6C(=O)N[C@@H](C)c6ccc(-c7scnc7C)cc6)C(C)(C)C)C5)nc4c3F)c12 [Compound 85]
inhibition at 0.1 µM: > 60%

C#Cc1c(F)ccc2cc(O)cc(-c3ncc4c(N5CC6CCC(C5)N6)nc(OC[C@@H]5C[C@@H](NC(=O)CCCCCCCCCCC(=O)N[C@H](C(=O)N6C[C@H](O)C[C@H]6C(=O)N[C@@H](C)c6ccc(-c7scnc7C)cc6)C(C)(C)C)CN5C)nc4c3F)c12 [Compound 90]
inhibition at 0.1 µM: ≤ 10%

C#Cc1c(F)ccc2cc(O)cc(-c3ncc4c(N5CC6CCC(C5)N6)nc(OC5CCN(CCCCCNC(=O)CO[C@@H]6C[C@H](C)CC[C@H]6C(C)C)C5)nc4c3F)c12 (stereo partly drawn) [Compound 143]
inhibition at 0.05 µM: 11 to 30%

C#Cc1c(F)ccc2cc(O)cc(-c3ncc4c(N5CC6CCC(C5)N6)nc(OCCCN5CCN(C(=O)C[C@H](NC(=O)[C@@H]6C[C@@H](O)CN6C(=O)[C@@H](NC(=O)C6(F)CC6)C(C)(C)C)c6ccc(-c7scnc7C)cc6)CC5)nc4c3F)c12 [Compound 64]
inhibition at 0.1 µM: ≤ 10%
inhibition at 1 µM: 11 to 30%

C#Cc1c(F)ccc2cc(O)cc(-c3ncc4c(N5CC6CCC(C5)N6)nc(OCCCN5CCN(C(=O)CN6CCN(c7ccc8c(c7)C(=O)N(C7CCC(=O)NC7=O)C8=O)CC6)CC5)nc4c3F)c12 (stereo not drawn) [Compound 60]
inhibition at 0.1 µM: ≤ 10%
inhibition at 1 µM: 11 to 30%

C#Cc1c(F)ccc2cc(O)cc(-c3ncc4c(N5CC6CCC(C5)N6)nc(OCC5(CN6CCN(c7ccc8c(c7)C(=O)N(C7CCC(=O)NC7=O)C8=O)CC6)CC5)nc4c3F)c12 (stereo not drawn) [Compound 117]
inhibition at 0.1 µM: > 60%

C#Cc1c(F)ccc2cc(O)cc(-c3ncc4c(N5CC6CCC(C5)N6)nc(O[C@@H]5CCN(CCCCCCCCCC(=O)N[C@H](C(=O)N6C[C@H](O)C[C@H]6C(=O)N[C@@H](C)c6ccc(-c7scnc7C)cc6)C(C)(C)C)C5)nc4c3F)c12 [Compound 88]
inhibition at 0.1 µM: ≤ 10%

C#Cc1c(F)ccc2cc(O)cc(-c3ncc4c(N5CC6CCC(C5)N6)nc(OCC5(CN6CCC(N7CCN(c8ccc(NC9CCC(=O)NC9=O)cc8F)CC7)CC6)CC5)nc4c3F)c12 (stereo not drawn) [Compound 142]
inhibition at 0.05 µM: 31 to 60%

C#Cc1c(F)ccc2cc(O)cc(-c3ncc4c(N5CC6CCC(C5)N6)nc(OC5CCN(CCOCCOCCOCC(=O)N[C@H](C(=O)N6C[C@H](O)C[C@H]6C(=O)NCc6ccc(-c7scnc7C)cc6)C(C)(C)C)CC5)nc4c3F)c12 [Compound 54]
inhibition at 1 µM: ≤ 10%

C#Cc1c(F)ccc2cc(O)cc(-c3ncc4c(N5CC6CCC(C5)N6)nc(OC5CCN(CCCCCCCCCC(=O)N6CCN(C(=O)C[C@H](NC(=O)[C@@H]7CC(O)CN7C(=O)[C@@H](NC(=O)C7(F)CC7)C(C)(C)C)c7ccc(-c8scnc8C)cc7)CC6)C5)nc4c3F)c12 (stereo in doubt) [Compound 105]
inhibition at 0.1 µM: 31 to 60%

C#Cc1c(F)ccc2cc(O)cc(-c3ncc4c(N5CC6CCC(C5)N6)nc(OCCCN5CCN(CC(=O)N6CCN(c7ccc8c(c7)C(=O)N(C7CCC(=O)NC7=O)C8=O)CC6)CC5)nc4c3F)c12 (stereo not drawn) [Compound 59]
inhibition at 0.1 µM: ≤ 10%
inhibition at 1 µM: ≤ 10%

C#Cc1c(F)ccc2cc(O)cc(-c3ncc4c(N5CC6CCC(C5)N6)nc(OCC5(CN6CCN(C(=O)CN7CCN(c8ccc9c(c8)C(=O)N(C8CCC(=O)NC8=O)C9=O)CC7)CC6)CC5)nc4c3F)c12 (stereo not drawn) [Compound 116]
inhibition at 0.1 µM: 31 to 60%

CCc1c(F)ccc2cc(O)cc(-c3ncc4c(N5CC6CCC(C5)N6)nc(OCC56CCCN5[C@@H](COC(=O)NCCCCCCCC(=O)N[C@H](C(=O)N5C[C@H](O)C[C@H]5C(=O)N[C@@H](C)c5ccc(-c7scnc7C)cc5)C(C)(C)C)CC6)nc4c3F)c12 (stereo partly drawn) [Compound 68]
inhibition at 0.1 µM: 31 to 60%
inhibition at 1 µM: > 60%

C#Cc1c(F)ccc2cc(O)cc(-c3ncc4c(N5CC6CCC(C5)N6)nc(OC5CCN(CCCCCCCCCCC(=O)N6CCN(C(=O)C[C@H](NC(=O)[C@@H]7C[C@@H](O)CN7C(=O)[C@@H](NC(=O)C7(F)CC7)C(C)(C)C)c7ccc(-c8scnc8C)cc7)CC6)CC5)nc4c3F)c12 [Compound 103]
inhibition at 0.1 µM: ≤ 10%

C#Cc1c(F)ccc2cc(O)cc(-c3ncc4c(N5CC6CCC(C5)N6)nc(OCC5(CN6CCC7(CC6)CC(Nc6cccc8c(C9CCC(=O)NC9=O)n[nH]c68)C7)CC5)nc4c3F)c12 (stereo not drawn) [Compound 163]
inhibition at 0.05 µM: 31 to 60%
